Experiments:
Stability in human serum = format: in vitro ADME; conditions: 37° C., HPLC MS
Procedure: Inhibitors were incubated in human serum for 0 or 3 h at 37° C. and subsequently extracted with the MTBE method and analyzed via HPLC MS. Samples measured in triplicates.

pig vWAT = test: Pig vWAT inhibition, visceral adipose tissue lysates + CGI-58; format: biochemical
Procedure: Lysates from visceral adipose tissue of pigs (Sus scrofa) were incubated with recombinant purified ATGL co-activator CGI-58 and ATGL inhibitors at 50 μM. Subsequently, substrate containing radiolabeled triolein was added and liberated FA were extracted and quantified by liquid scintillation. Inhibitors were dissolved in DMSO which was used as control. Samples were measured in triplicates.

hPNPLA6 = target: T1, hPNPLA6 (Homo sapiens, UniProt Q8IY17); test: hPNPLA6 off-target inhibition; format: biochemical; conditions: read-out: hPNPLA6 off-target inhibition [% inhibition at 100 μM]
T1 construct: made in house; host or cells: Expi cells (lysate)
T1 sequence (Q8IY17 1-1375): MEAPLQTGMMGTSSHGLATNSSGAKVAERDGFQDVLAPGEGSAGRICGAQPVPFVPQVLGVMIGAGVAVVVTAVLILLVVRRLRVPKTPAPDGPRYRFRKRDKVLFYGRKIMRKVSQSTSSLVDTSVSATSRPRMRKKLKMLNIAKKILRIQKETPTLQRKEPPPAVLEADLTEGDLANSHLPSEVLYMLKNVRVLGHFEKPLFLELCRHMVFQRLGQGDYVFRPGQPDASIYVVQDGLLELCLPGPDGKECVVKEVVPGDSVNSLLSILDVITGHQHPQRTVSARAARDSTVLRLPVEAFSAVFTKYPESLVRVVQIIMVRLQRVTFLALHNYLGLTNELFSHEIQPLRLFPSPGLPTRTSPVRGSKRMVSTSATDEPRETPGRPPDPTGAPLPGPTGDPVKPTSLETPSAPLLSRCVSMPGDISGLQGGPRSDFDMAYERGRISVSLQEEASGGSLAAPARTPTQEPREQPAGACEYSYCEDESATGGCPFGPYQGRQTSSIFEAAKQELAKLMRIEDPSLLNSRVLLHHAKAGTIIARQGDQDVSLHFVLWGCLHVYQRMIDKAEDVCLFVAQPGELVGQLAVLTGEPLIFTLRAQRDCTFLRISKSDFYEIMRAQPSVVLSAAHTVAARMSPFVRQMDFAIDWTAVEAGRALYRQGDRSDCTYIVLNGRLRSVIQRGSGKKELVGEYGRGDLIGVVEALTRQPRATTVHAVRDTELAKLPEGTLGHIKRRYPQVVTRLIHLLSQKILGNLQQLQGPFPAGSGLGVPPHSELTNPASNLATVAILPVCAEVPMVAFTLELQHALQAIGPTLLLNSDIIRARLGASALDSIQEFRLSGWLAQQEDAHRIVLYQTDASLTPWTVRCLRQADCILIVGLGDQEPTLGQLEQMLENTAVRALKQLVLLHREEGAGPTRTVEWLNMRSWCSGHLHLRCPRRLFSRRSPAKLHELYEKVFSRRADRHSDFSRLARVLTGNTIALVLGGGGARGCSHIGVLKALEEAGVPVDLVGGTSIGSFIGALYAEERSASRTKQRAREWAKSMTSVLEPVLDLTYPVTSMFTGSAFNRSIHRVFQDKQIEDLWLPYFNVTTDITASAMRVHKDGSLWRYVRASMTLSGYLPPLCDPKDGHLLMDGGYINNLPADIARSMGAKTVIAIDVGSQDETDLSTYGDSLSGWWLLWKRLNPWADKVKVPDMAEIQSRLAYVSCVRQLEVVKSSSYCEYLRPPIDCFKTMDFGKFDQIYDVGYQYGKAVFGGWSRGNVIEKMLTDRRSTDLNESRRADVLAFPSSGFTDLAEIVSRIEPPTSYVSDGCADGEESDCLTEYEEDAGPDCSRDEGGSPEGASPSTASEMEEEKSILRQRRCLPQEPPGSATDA
Procedure: Expi lysates expressing hPNPLA6 were treated with 100 μM Inhibitors and incubated with 1 mM C8 monoacylglycerol substrate (containing 5 mM CHAPS, 50 mM NaPh buffer ph7.4, 0.15 M NaCl) for 40 min, Glycerol release was determined via Free glycerol reagent (Sigma Aldrich). Samples measured in triplicates.

Row | SMILES | Stability in human serum [% rest after 3 h incubation] (Stability in human serum) | pig vWAT inhibition [% inhibition at 50 μM (pig vWAT) | inhibition at 100 µM (hPNPLA6)
1 | CCOc1ccc(-c2cc(OC)cc(C(=O)OC(C)C)n2)cc1 [Example 35] | 75% | – | –
2 | CCOc1ccc(-c2nc(C(=O)OCc3ccoc3)cs2)cc1 [Example 216, Furan-3-ylmethyl 2-(4-ethoxyphenyl)thiazole-4-carboxylate] | 60% | 15% | 0%
3 | C#C[C@@H](C)OC(=O)c1csc(-c2ccc(OCC)cc2)n1 [Example 211, (R)-But-3-yn-2-yl 2-(4-ethoxyphenyl)thiazole-4-carboxylate] | 90% | 5% | 0%
4 | CCOc1ccc(-c2cccc(C(=O)OCc3cccs3)n2)cc1 [Example 189, Thiophen-2-ylmethyl 6-(4-ethoxyphenyl)picolinate] | 25% | 15% | 0%
5 | CCOc1ccc(-c2cccc(C(=O)OCc3ccco3)n2)cc1 [Example 190, Furan-2-ylmethyl 6-(4-ethoxyphenyl)picolinate] | 0% | 0% | 0%
6 | CCCCOC(=O)c1csc(-c2ccc(OCC)cc2)n1 [Example 212, Butyl 2-(4-ethoxyphenyl)thiazole-4-carboxylate] | 50% | 5% | 0%
7 | CCOc1ccc(-c2nc(C(=O)OCc3ccsc3)cs2)cc1 [Example 215, Thiophen-3-ylmethyl 2-(4-ethoxyphenyl)thiazole-4-carboxylate] | 80% | 15% | 0%
8 | CCOc1ccc(-c2nc(C(=O)OCc3ccc(Cl)s3)cs2)cc1 [Example 223, (5-Chlorothiophen-2-yl)methyl 2-(4-ethoxyphenyl)thiazole-4-carboxylate] | 80% | 15% | 0%
9 | CC#CCOC(=O)c1csc(-c2ccc(OCC)cc2)n1 [Example 209, But-2-yn-1-yl 2-(4-ethoxyphenyl)thiazole-4-carboxylate] | 75% | 0% | 0%
10 | CCOc1ccc(-c2nc(C(=O)OCc3ccc(Br)s3)cs2)cc1 [Example 224, (5-Bromothiophen-2-yl)methyl 2-(4-ethoxyphenyl)thiazole-4-carboxylate] | – | 15% | 0%
11 | C#C[C@H](C)OC(=O)c1csc(-c2ccc(OCC)cc2)n1 [Example 210, (S)-But-3-yn-2-yl 2-(4-ethoxyphenyl)thiazole-4-carboxylate] | 100% | 5% | 0%
12 | COc1cc(C(=O)OC(C)C)nc(-c2ccc(OC(C)C)cc2)c1 [Example 201, Isopropyl 6-(4-isopropoxyphenyl)-4-methoxypicolinate] | 100% | 0% | 0%
13 | CCOc1ccc(-c2nc(C(=O)OCc3cccs3)cs2)cc1 [Example 152, Thiophen-2-ylmethyl 2-(4-ethoxyphenyl)thiazole-4-carboxylate] | 80% | 0% | 0%

— US20220289698A1, “INHIBITORS OF HUMAN ATGL” (Karl-Franzens-Universität Graz, priority 2019, published 2022)
